Key:
[1] = target: T1, PRKACA-DNAJB1 (Homo sapiens, UniProt P17612); assay: PRKACA-DNAJB1 enzyme assay (EZ Reader 2 electrophoretic mobility shift); assay type: biochemical; settings: read-out: Enz PRKACA-DNAJB1 IC50
T1 construct: DNAJB1 (fusion partner, P25685); the other entry of the earlier key: DNAJB1 (P25685, DnaJ homolog subfamily B member 1)
Experimental: (§1) A Perkin Elmer electrophoretic mobility shift platform (the EZ Reader 2) was used to assess the activity of test compounds against a kinase of interest. Fluorescently labeled substrate peptide was incubated in the presence of kinase, ATP, and the test compound, so that a portion of the peptide was phosphorylated by the enzyme. At the end of the reaction, the mix of phosphorylated (product) and non-phosphorylated (substrate) peptide containing solutions was passed through the microfluidic system of the Perkin Elmer EZ Reader 2 under an applied potential difference. The presence of the phosphate group on the product peptide provided a difference in mass and charge between those of the substrate peptide, resulting in a separation of the substrate and product pools in the sample. As the stopped solutions passed under the instrument's LED light the phosphorylated and un-phosphorylated fluorophore bound peptides were detected and resolved as separate peaks. The ratio between these peaks therefore reflected the test compound's impact on the kinase at that concentration in that well under those conditions.

[2] = target: T2, PRKACA (Homo sapiens, UniProt P17612); assay: PRKACA assay at Km (EZ Reader 2 electrophoretic mobility shift); assay type: biochemical; settings: 5 μM ATP (Km), 1 μM Kemptide, 90 minutes at 25 C; read-out: Enz PRKACA IC50
T2 construct: purchased Millipore 539482
Experimental: as §1
PRKACA assay at Km: In each well of a 384-well plate, 0.007 ng/ul (0.18 nM) of PRKACA enzyme (Millipore: 539482) was incubated in a total of 12.5 μl of buffer (100 mM HEPES pH 7.5, 0.015% Brij 35, 10 mM MgCl2, 1 mM DTT) with 1 μM Kemptide peptide substrate (5-FAM-LRRASLG) (Anaspec 29933) and 5 μM ATP at 25 C for 90 minutes in the presence or absence of a dosed concentration series of test compounds (1% DMSO final concentration). The reaction was stopped by the addition of 80 μl of Stop buffer (100 mM HEPES pH 7.5, 0.015% Brij 35, 35 mM EDTA and 0.2% of Coating Reagent 3 (Perkin Elmer)). The plate was then read on the EZ Reader 2 (protocol settings: −2.0 psi, upstream voltage −700, downstream voltage −2700, post sample sip 60 seconds). Data was normalized to 0% and 100% inhibition controls and the IC50 calculated using a 4-parameter fit using GraphPad Prism.

[3] = test system: PKA (phosphorylation of VASP on Serine 157); assay: Cellular potency assay: P-VASP(157) HTRF in Forskolin-stimulated Huh7 cells; assay type: cell-based; settings: Homo sapiens, Huh-7, 4 hours compound, 5 μM Forskolin 30 minutes, read-out: Phos VASP(S157) IC50
Excerpt: PKA directly phosphorylate VASP on Serine 157. Phosphorylation of VASP on Serine 157. P-VASP(157) was therefore used as a readout of PKA cellular activity. P-VASP(157) was detected with a HTRF assay, which is based on a TR-FRET sandwich immunoassay-based format comprising two specific anti-VASP antibodies following the manufactors protocol (Cisbio, Catalog No. 63ADK066PEH). PKA was activated in the assay by the addition of Forskolin (Sigma-Aldrich, Catalog No. F3917).
Dose response in Forskolin-stimulated human Huh7 cells was measured as follows. Briefly, Huh7 cells were plated at a density of 2×10^4 cells per well in a 384-well opti-well cell culture plate in 15 μl of serum- and phenol-free Dulbecco's Modified Eagle Medium (DMEM, Gibco Catalog No. 21063-029), and incubated for over night at 37° C., 5% CO2. The next day, 3 μl of a dosed concentration series of test compound (0.24%) DMSO final concentration) was added to the wells, and the cells were incubated for an additional 4 hours at 37° C., 5% CO2. 2 μl of Forskolin was added at a final concentration of 5 μM and the plates were incubated for 30 minutes at 37° C., 5% CO2. 5 μl of lysis buffer containing 1% HALT protease cocktail inhibitors (ThermoFisher, Catalog No. 78430), was added to the cells and the mixture was incubated under gentle shaking for 30 min at room temperature. 10 μl of this lysate was transferred to a 384-well proxi plate and 2.5 μL of the premixed antibody solution was added. An antibody solution was prepared by combining phopho-VASP cryptate antibody and phospho-VASP d2 antibody, at twenty-fold dilution into a buffer solution following the manufactors' protocol. The lysate and antibody mixture was incubated for either 3 h at room temperature or overnight at 4° C. The fluorescence emission at two different wavelengths (665 nm and 620 nm) was read on an EnVision instrument.

SMILES: O=C(N[C@@H]1c2ccccc2C[C@H]1N1CCCC1)c1ccc(-c2ccnc3[nH]cc(F)c23)nc1 [Compound 159]
- IC50 [1]: 1.01 to 5 nM
- IC50 [2]: ≤ 1 nM
- IC50 [3]: 0.01 to 100 nM

SMILES: O=C(N[C@@H]1c2c(Cl)cccc2C[C@H]1N1C[C@@H](O)[C@@H](F)C1)c1ccc(-c2ccnc3[nH]ccc23)nc1 [Compound 187]
- IC50 [2]: 1.01 to 5 nM
- IC50 [3]: > 100 nM

SMILES: C[C@H]1Oc2cccc(F)c2[C@@H](NC(=O)c2ccc(-c3ccnc4[nH]ccc34)nc2)[C@@H]1O [Compound 137]
- IC50 [2]: ≤ 1 nM
- IC50 [3]: 0.01 to 100 nM

SMILES: O=C(N[C@@H]1c2ccc(C(F)F)cc2C[C@H]1N1CC[C@H](F)C1)c1ccc(-c2ccnc3[nH]ccc23)nc1 [Compound 183]
- IC50 [2]: 1.01 to 5 nM
- IC50 [3]: 0.01 to 100 nM

SMILES: CO[C@@H]1CCN([C@@H]2Cc3ccccc3[C@H]2NC(=O)c2ccc(-c3ccnc4[nH]ccc34)nc2)C1 [Compound 163]
- IC50 [2]: ≤ 1 nM
- IC50 [3]: 0.01 to 100 nM

SMILES: O=C(N[C@@H]1c2ccccc2C[C@H]1N1CC[C@H](F)C1)c1ccc(-c2ccnc3[nH]ccc23)nc1 [Compound 158]
- IC50 [2]: ≤ 1 nM
- IC50 [3]: 0.01 to 100 nM

SMILES: O=C(N[C@H]1C[C@@H](O)c2cc(C(F)F)cc(F)c21)c1ccc(-c2ccnc3[nH]ccc23)nc1 [Compound 156]
- IC50 [2]: ≤ 1 nM
- IC50 [3]: < 50 nM

SMILES: O=C(N[C@H]1CCc2cccc(F)c21)c1ccc(-c2ccnc3[nH]ccc23)nc1 [Compound 106]
- IC50 [2]: ≤ 1 nM
- IC50 [3]: 0.01 to 100 nM

SMILES: Cc1c[nH]c2nccc(-c3ccc(C(=O)N[C@@H]4c5c(Cl)cccc5C[C@H]4N4CC[C@H](F)C4)cn3)c12 [Compound 182]
- IC50 [2]: ≤ 1 nM
- IC50 [3]: 0.01 to 100 nM

SMILES: Cc1c[nH]c2nccc(-c3ccc(C(=O)N[C@@H]4c5c(Cl)cccc5C[C@H]4N4CCCC4)cn3)c12 [Compound 174]
- IC50 [2]: ≤ 1 nM
- IC50 [3]: < 50 nM

SMILES: Cc1c[nH]c2nccc(-c3ccc(C(=O)N[C@@H]4c5c(ccc(F)c5Cl)C[C@H]4N4CCCC4)cn3)c12 [Compound 181]
- IC50 [2]: ≤ 1 nM
- IC50 [3]: < 50 nM

SMILES: O=C(N[C@@H]1c2c(Cl)cccc2C[C@H]1N1CC[C@H](F)C1)c1ccc(-c2ccnc3[nH]ccc23)nc1 [Compound 178]
- IC50 [2]: ≤ 1 nM
- IC50 [3]: < 50 nM

SMILES: O=C(N[C@@H]1c2ccccc2OC[C@H]1F)c1ccc(-c2ccnc3[nH]ccc23)cc1 [Compound 116, N-[(3S,4R)-3-Fluoro-3,4-dihydro-2H-1-benzopyran-4-yl]-4-{1H-pyrrolo[2,3-b]pyridin-4-yl}benzamide]
- IC50 [2]: ≤ 1 nM
- IC50 [3]: 0.01 to 100 nM

SMILES: CC1CN([C@@H]2Cc3ccccc3[C@H]2NC(=O)c2ccc(-c3ccnc4[nH]ccc34)nc2)C1 [Compound 145]
- IC50 [2]: ≤ 1 nM
- IC50 [3]: 0.01 to 100 nM

SMILES: O=C(N[C@H]1C[C@H](O)c2cc(C(F)F)cc(F)c21)c1ccc(-c2ccnc3[nH]ccc23)nc1 [Compound 155]
- IC50 [2]: ≤ 1 nM
- IC50 [3]: < 50 nM

SMILES: CCN(CC)[C@@H]1Cc2ccccc2[C@H]1NC(=O)c1ccc(-c2ccnc3[nH]ccc23)nc1 [Compound 147]
- IC50 [2]: 1.01 to 5 nM
- IC50 [3]: < 50 nM

SMILES: C[C@@H]1c2cccc(F)c2[C@@H](NC(=O)c2ccc(-c3ccnc4[nH]ccc34)nc2)[C@H]1O (single isomer, unassigned) [Compound 122]
- IC50 [2]: ≤ 1 nM
- IC50 [3]: < 50 nM

SMILES: O=C(N[C@@H]1c2c(ccc(F)c2F)C[C@H]1N1CCCC1)c1ccc(-c2ccnc3[nH]cc(F)c23)nc1 [Compound 179]
- IC50 [2]: ≤ 1 nM
- IC50 [3]: < 50 nM

SMILES: O=C(N[C@@H]1c2ccccc2C[C@H]1N1CCC1)c1ccc(-c2ccnc3[nH]ccc23)nc1 [Compound 133]
- IC50 [2]: 1.01 to 5 nM
- IC50 [3]: 0.01 to 100 nM

SMILES: CN(C)C(=O)[C@H]1N([C@@H]2Cc3cccc(Cl)c3[C@H]2NC(=O)c2ccc(-c3ccnc4[nH]ccc34)nc2)CC1(C)C [Compound 192, N-[(1R,2R)-7-Chloro-2-[(2S)-2-(dimethylcarbamoyl)-3,3-dimethylazetidin-1-yl]-2,3-dihydro-1H-inden-1-yl]-6-{1H-pyrrolo[2,3-b]pyridin-4-yl}pyridine-3-carboxamide]
- IC50 [2]: ≤ 1 nM
- IC50 [3]: < 50 nM

SMILES: O=C(N[C@@H]1c2c(ccc(F)c2Cl)C[C@H]1N1CCCC1)c1ccc(-c2ccnc3[nH]ccc23)nc1 [Compound 177]
- IC50 [2]: ≤ 1 nM
- IC50 [3]: < 50 nM

SMILES: O=C(N[C@H]1C[C@H](O)c2cccc(F)c21)c1ccc(-c2ccnc3[nH]ccc23)nc1 (single isomer, unassigned) [Compound 118]
- IC50 [2]: ≤ 1 nM
- IC50 [3]: 0.01 to 100 nM

SMILES: O=C(N[C@H]1CCc2ccc(F)cc21)c1ccc(-c2ccnc3[nH]ccc23)nc1 [Compound 105, N-[(1S)-6-Fluoro-2,3-dihydro-1H-inden-1-yl]-6-{1H-pyrrolo[2,3-b]pyridin-4-yl}pyridine-3-carboxamide]
- IC50 [2]: 1.01 to 5 nM
- IC50 [3]: 0.01 to 100 nM

SMILES: Cc1c[nH]c2nccc(-c3ccc(C(=O)N[C@H]4CCOc5cc(F)cc(F)c54)cn3)c12 [Compound 138]
- IC50 [2]: ≤ 1 nM
- IC50 [3]: 0.01 to 100 nM

SMILES: CN(C)C(=O)[C@H]1N([C@@H]2Cc3cccc(Cl)c3[C@H]2NC(=O)c2ccc(-c3ccnc4[nH]ccc34)cn2)CC1(C)C [Compound 193]
- IC50 [2]: ≤ 1 nM
- IC50 [3]: < 50 nM

SMILES: O=C(N[C@@H]1c2c(F)cc(C(F)F)cc2OC[C@@H]1O)c1ccc(-c2ccnc3[nH]ccc23)nc1 [Compound 164]
- IC50 [2]: ≤ 1 nM
- IC50 [3]: < 50 nM

SMILES: O=C(N[C@@H]1c2c(Cl)cccc2C[C@H]1N1C[C@@H](O)[C@H](F)C1)c1ccc(-c2ccnc3[nH]ccc23)nc1 [Compound 184]
- IC50 [2]: 1.01 to 5 nM

SMILES: O=C(N[C@@H]1c2c(Cl)cccc2C[C@H]1N1CCCC1)c1ccc(-c2ccnc3[nH]ccc23)nc1 [Compound 168]
- IC50 [2]: ≤ 1 nM
- IC50 [3]: < 50 nM

SMILES: O=C(N[C@@H]1c2c(F)cccc2OC[C@@H]1O)c1ccc(-c2ccnc3[nH]ccc23)cc1 [Compound 124]
- IC50 [2]: ≤ 1 nM
- IC50 [3]: < 50 nM

SMILES: O=C(N[C@H]1c2c(ccc(F)c2F)OC[C@H]1O)c1ccc(-c2ccnc3[nH]ccc23)nc1 (stereo in doubt) [Compound 140, N-[(3S,4S)-5,6-Difluoro-3-hydroxy-3,4-dihydro-2H-1-benzopyran-4-yl]-6-{1H-pyrrolo[2,3-b]pyridin-4-yl}pyridine-3-carboxamide]
- IC50 [2]: ≤ 1 nM
- IC50 [3]: 0.01 to 100 nM

SMILES: O=C(N[C@H]1CCOc2ccc(Cl)c(F)c21)c1ccc(-c2ccnc3[nH]ccc23)nc1 [Compound 143]
- IC50 [2]: ≤ 1 nM
- IC50 [3]: < 50 nM

SMILES: Cc1c[nH]c2nccc(-c3ccc(C(=O)N[C@@H]4c5c(F)cccc5C[C@H]4N4CC(C)C4)cn3)c12 [Compound 166]
- IC50 [2]: ≤ 1 nM
- IC50 [3]: 0.01 to 100 nM

SMILES: O=C(N[C@@H]1c2c(ccc(F)c2F)C[C@@H]1O)c1ccc(-c2ccnc3[nH]ccc23)nc1 [Compound 132, N-[(1R,2S)-6,7-Difluoro-2-hydroxy-2,3-dihydro-1H-inden-1-yl]-6-{1H-pyrrolo[2,3-b]pyridin-4-yl}pyridine-3-carboxamide]
- IC50 [2]: ≤ 1 nM
- IC50 [3]: < 50 nM

SMILES: C[C@H]1Oc2ccc(F)c(F)c2[C@@H](NC(=O)c2ccc(-c3ccnc4[nH]ccc34)nc2)[C@@H]1O [Compound 149]
- IC50 [2]: ≤ 1 nM
- IC50 [3]: < 50 nM

SMILES: Cc1cccc2c1[C@@H](NC(=O)c1ccc(-c3ccnc4[nH]ccc34)nc1)[C@H](N1CCCC1)C2 [Compound 153]
- IC50 [2]: ≤ 1 nM
- IC50 [3]: 0.01 to 100 nM

— patent publication US12583856B2, “Inhibitors of protein kinase A” (Blueprint Medicines Corporation, priority 2021, dated 2026)
